The values below come from patent US11866430B2, “Naphthyridinone compounds useful as T cell activators” (priority 2018, dated 2024).

Where two headings read alike, the source gives them in different places.

For experiment [1], the system named is pre-activated CD4 T cells and Raji cells. Nature of the experiment: Raji CD4 T Cell IL2 Assay. Format: cell-based.
Experiment [2] addresses T1, human DGKα (Homo sapiens (Human), UniProt P23743). As to the kind of experiment: DGKα LIPGLO assay (extruded liposome substrate). In kind it is biochemical. The gist of the method:
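Human full-length DGKα, His-tagged and produced in Sf9 cells, assayed at 20 nM (4× stock) on extruded liposomes of PS, 0.25 mM DAG and 2.75 mM PC, preincubated 10 min. Reaction started with 300 μM ATP (stock) and ran 1 h in MOPS pH 7.5/MgCl2/CaCl2/DTT buffer.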

For experiment [3], the target named is T2, human DGKζ (Homo sapiens (Human), UniProt Q13574). As to the kind of experiment: DGKζ LIPGLO assay (extruded liposome substrate). Format: biochemical. The procedure, abridged:
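Sf9-derived DGKζ was premixed 10 min with PC/DAG/PS liposomes (100 nm extruded) in MOPS pH 7.5 buffer containing NaCl, MgCl2, CaCl2 and DTT.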

Experiment [4] deals with T2, human DGKζ. Nature of the experiment: DGKζ assay (detergent/lipid micelle substrate). In kind it is biochemical. The procedure, abridged: (§1)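 Full-length human DGKα or DGKζ (C-terminal His tag, Sf9-expressed; 20 nM 4× stock) was preincubated 10 min at room temperature with PS/DAG octyl glucoside micelles in MOPS pH 7.5 buffer with MgCl2, CaCl2 and DTT. It was then started with ATP (300 uM addition) and run for 1 hr, with ADP-Glo luminescence read-out.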

In experiment [5] the target is T1, human DGKα. Nature of the experiment: biochemical. The procedure, abridged: as §1
Setting [6] is: extruded liposome substrate, read-out: DGKζ LIPGLO IC50.
The mark [7] stands for this setting: detergent/lipid micelle substrate, read-out: DGKζ IC50.
Setting [8] is: detergent/lipid micelle substrate, read-out: DGKα IC50.

T2 sequence (Q13574 other isoform, or with tags, fused parts or gaps): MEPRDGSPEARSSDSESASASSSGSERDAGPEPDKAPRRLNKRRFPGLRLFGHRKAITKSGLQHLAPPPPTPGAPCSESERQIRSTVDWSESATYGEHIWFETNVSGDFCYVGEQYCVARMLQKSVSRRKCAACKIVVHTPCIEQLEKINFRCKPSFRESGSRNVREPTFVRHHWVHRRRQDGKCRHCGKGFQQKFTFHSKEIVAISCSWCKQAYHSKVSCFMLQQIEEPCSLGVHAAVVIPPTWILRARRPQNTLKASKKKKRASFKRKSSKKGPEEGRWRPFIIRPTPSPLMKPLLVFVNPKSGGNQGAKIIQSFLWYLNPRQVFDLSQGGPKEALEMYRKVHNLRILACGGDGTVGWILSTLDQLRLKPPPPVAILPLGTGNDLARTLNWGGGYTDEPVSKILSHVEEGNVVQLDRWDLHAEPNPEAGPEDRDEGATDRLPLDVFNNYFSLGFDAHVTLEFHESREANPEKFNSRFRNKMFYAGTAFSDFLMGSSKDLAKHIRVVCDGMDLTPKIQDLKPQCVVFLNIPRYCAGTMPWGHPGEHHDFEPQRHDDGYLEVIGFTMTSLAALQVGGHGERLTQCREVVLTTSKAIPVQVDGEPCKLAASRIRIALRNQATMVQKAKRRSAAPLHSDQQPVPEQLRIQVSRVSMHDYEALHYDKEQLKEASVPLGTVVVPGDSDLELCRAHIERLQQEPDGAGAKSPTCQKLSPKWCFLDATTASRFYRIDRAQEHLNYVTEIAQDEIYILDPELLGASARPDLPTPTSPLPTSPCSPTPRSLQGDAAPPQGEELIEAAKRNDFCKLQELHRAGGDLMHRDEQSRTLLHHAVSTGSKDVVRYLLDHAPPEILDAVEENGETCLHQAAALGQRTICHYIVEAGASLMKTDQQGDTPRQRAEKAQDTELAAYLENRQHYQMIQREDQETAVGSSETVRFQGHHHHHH
T1 sequence (P23743 other isoform, or with tags, fused parts or gaps): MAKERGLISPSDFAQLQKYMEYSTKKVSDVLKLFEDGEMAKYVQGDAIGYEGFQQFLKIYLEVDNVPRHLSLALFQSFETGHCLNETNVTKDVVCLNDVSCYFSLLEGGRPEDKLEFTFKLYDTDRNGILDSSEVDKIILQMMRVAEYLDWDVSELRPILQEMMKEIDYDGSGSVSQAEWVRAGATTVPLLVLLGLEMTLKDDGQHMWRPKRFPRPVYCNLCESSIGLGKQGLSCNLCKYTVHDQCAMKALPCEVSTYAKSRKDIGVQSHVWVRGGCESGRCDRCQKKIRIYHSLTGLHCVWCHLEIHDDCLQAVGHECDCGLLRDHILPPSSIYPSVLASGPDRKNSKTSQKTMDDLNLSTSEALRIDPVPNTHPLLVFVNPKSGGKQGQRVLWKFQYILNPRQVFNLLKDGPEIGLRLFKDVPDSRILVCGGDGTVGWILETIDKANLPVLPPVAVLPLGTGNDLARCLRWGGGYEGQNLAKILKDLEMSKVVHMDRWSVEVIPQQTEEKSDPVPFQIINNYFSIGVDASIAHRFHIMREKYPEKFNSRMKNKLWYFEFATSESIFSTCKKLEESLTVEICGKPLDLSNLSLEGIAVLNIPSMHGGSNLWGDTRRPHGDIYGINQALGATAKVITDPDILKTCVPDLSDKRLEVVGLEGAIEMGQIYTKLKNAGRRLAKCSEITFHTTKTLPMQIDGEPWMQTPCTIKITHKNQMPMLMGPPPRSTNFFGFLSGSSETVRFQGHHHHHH

A word on the IC50: it is the concentration needed to halve the response being measured. With `C#CCn1c(=O)c(C#N)c(N2CCN(Cc3ccccc3O)CC2)c2nc(Br)ccc21` [Example 65, 6-bromo-4-(4-(2-hydroxybenzyl)piperazin-1-yl)-2-oxo-1-(prop-2-yn-1-yl)-1,2-dihydro-1,5-naphthyridine-3-carbonitrile], the IC50 came to 0.0055 µM in experiment [1] (Homo sapiens, Raji); 0.51 µM at human DGKα [2]; 3.7 µM at human DGKζ [3] (setting [6]); 20 µM on human DGKζ [4] (setting [7]); 0.29 µM on human DGKα [5] (setting [8]).
In the same order, the values of `Cc1cccc(O)c1CN1CCN(c2c(C#N)c(=O)n(C)c3ccc(Cl)nc23)CC1` [Example 292, 6-chloro-4-{4-[(2-hydroxy-6-methylphenyl)methyl]piperazin-1-yl}-1-methyl-2-oxo-1,2-dihydro-1,5-naphthyridine-3-carbonitrile] are 0.11 µM, 0.48 µM, 2.4 µM, 25 µM and 0.27 µM.
As to `Cn1c(=O)c([N+](=O)[O-])c(N2CCN(C(c3ccc(F)cc3)C3CC3)CC2)c2nc(C#N)ccc21` (single isomer, unassigned) [Example 50, 8-(4-(cyclopropyl(4-fluorophenyl)methyl)piperazin-1-yl)-5-methyl-7-nitro-6-oxo-5,6-dihydro-1,5-naphthyridine-2-carbonitrile], the IC50 came to 0.039 µM in experiment [1]; 2.1 µM on human DGKα [2]; 5.7 µM at human DGKζ [3] (setting [6]); 39 µM at human DGKζ [4] (setting [7]); 0.99 µM at human DGKα [5] (setting [8]).
As to `COc1ccc(CN2CCN(c3c(C#N)c(=O)n(C)c4ccc(Cl)nc34)CC2)cc1F` [Example 279, 6-chloro-4-{4-[(3-fluoro-4-methoxyphenyl)methyl]piperazin-1-yl}-1-methyl-2-oxo-1,2-dihydro-1,5-naphthyridine-3-carbonitrile], the IC50 in experiment [1] (Homo sapiens, Raji) is 0.092 µM; at human DGKα [2] it was 0.81 µM; at human DGKζ [3] (setting [6]) it was 5.8 µM; at human DGKζ [4] (setting [7]) it was 56 µM; at human DGKα [5] (setting [8]) it was 0.38 µM.
Consider `COc1ccccc1C(c1ccc(F)cc1)N1CCN(c2c(C#N)c(=O)n(C)c3ccc(Br)nc23)CC1` (single isomer, unassigned) [Example 14, 6-bromo-4-{4-[(4-fluorophenyl)(2-methoxyphenyl)methyl]piperazin-1-yl}-1-methyl-2-oxo-1,2-dihydro-1,5-naphthyridine-3-carbonitrile], for which the IC50 in experiment [1] is 0.026 µM; against human DGKα [2], 4.7 µM; on human DGKζ [3] (setting [6]), 3.2 µM; on human DGKζ [4] (setting [7]), more than 240 µM; at human DGKα [5] (setting [8]), 1.2 µM.
Turning to `Cc1cccc(O)c1CN1CCN(c2c(C#N)c(=O)n(C)c3ccc(Br)nc23)CC1` [Example 259, 6-bromo-4-{4-[(2-hydroxy-6-methylphenyl)methyl]piperazin-yl}-1-methyl-2-oxo-1,2-dihydro-1,5-naphthyridine-3-carbonitrile], the concentration for half-maximal inhibition (IC50) amounted to 0.016 µM in experiment [1] (Homo sapiens, Raji); 0.49 µM at human DGKα [2]; 4 µM on human DGKζ [3] (setting [6]); 55 µM on human DGKζ [4] (setting [7]); 0.42 µM on human DGKα [5] (setting [8]).
In the same order, the values of `Cc1cccc(CN2CCN(c3c(C#N)c(=O)n(C)c4ccc(Cl)nc34)CC2)c1F` [Example 281, 6-chloro-4-{4-[(2-fluoro-3-methylphenyl)methyl]piperazin-1-yl}-1-methyl-2-oxo-1,2-dihydro-1,5-naphthyridine-3-carbonitrile] are 0.093 µM, 2 µM, 9.9 µM, 49 µM and 0.39 µM.
For `Cn1c(=O)c([N+](=O)[O-])c(N2CCN(C(c3ccc(F)cc3)c3ccccc3O)CC2)c2nc(C#N)ccc21` (single isomer, unassigned) [Example 99, 8-(4-((4-fluorophenyl)(2-hydroxyphenyl)methyl)piperazin-1-yl)-5-methyl-7-nitro-6-oxo-5,6-dihydro-1,5-naphthyridine-2-carbonitrile], the half-inhibitory concentration (IC50) in experiment [1] came out at 0.0094 µM; on human DGKα [2], 0.72 µM; on human DGKζ [3] (setting [6]) it was 0.04 µM; at human DGKζ [4] (setting [7]) it was 0.67 µM; on human DGKα [5] (setting [8]), 0.41 µM.
In the case of `CCC(c1ccc(F)cc1)N1CCN(c2c([N+](=O)[O-])c(=O)n(C)c3ccc(C#N)nc23)CC1` (single isomer, unassigned) [Example 33, 8-{4-[1-(4-fluorophenyl)propyl]piperazin-1-yl}-5-methyl-7-nitro-6-oxo-5,6-dihydro-1,5-naphthyridine-2-carbonitrile], the IC50 in experiment [1] (Homo sapiens, Raji) was found to be 0.018 µM; at human DGKα [2], 1.7 µM; on human DGKζ [3] (DGKζ LIPGLO IC50, extruded liposome substrate) it was 1.7 µM; against human DGKζ [4] (DGKζ IC50, detergent/lipid micelle substrate) it was 7.6 µM; on human DGKα [5] (setting [8]) it was 0.75 µM.
On to `COc1ccc(O)c(CN2CCN(c3c(C#N)c(=O)n(C)c4ccc(Cl)nc34)CC2)c1` [Example 305, 6-chloro-4-{4-[(2-hydroxy-5-methoxyphenyl)methyl]piperazin-1-yl}-1-methyl-2-oxo-1,2-dihydro-1,5-naphthyridine-3-carbonitrile], for which the 50% inhibitory concentration (IC50) was found to be 0.21 µM in experiment [1] (Homo sapiens, Raji); 0.49 µM at human DGKα [2]; 7.5 µM on human DGKζ [3] (setting [6]); 62 µM at human DGKζ [4] (setting [7]); 0.13 µM on human DGKα [5] (setting [8]).
In the same order, the values of `Cn1c(=O)c(C(=O)C(F)(F)F)c(N2CCN(C(c3ccc(F)cc3)c3ccc(F)cc3)CC2)c2ncccc21` [Example 227, 4-(4-(bis(4-fluorophenyl)methyl)piperazin-1-yl)-1-methyl-3-(2,2,2-trifluoroacetyl)-1,5-naphthyridin-2(1H)-one] are 1.5 µM, 230 µM, 11 µM, more than 240 µM and more than 240 µM.
In the same order, the values of `Cc1ccc2c(n1)c(N1CCN(Cc3cc(Br)ccc3O)CC1)c(C#N)c(=O)n2C` [Example 277, 4-{4-[(5-bromo-2-hydroxyphenyl)methyl]piperazin-1-yl}-1,6-dimethyl-2-oxo-1,2-dihydro-1,5-naphthyridine-3-carbonitrile] are 0.079 µM, 1.7 µM, 13 µM, 45 µM and 0.75 µM.
In the same order, the values of `Cn1c(=O)c(C#N)c(N2CCN(Cc3cccc4ccccc34)CC2)c2nc(Cl)ccc21` [Example 221, 6-chloro-1-methyl-4-(4-(naphthalen-1-ylmethyl)piperazin-1-yl)-2-oxo-1,2-dihydro-1,5-naphthyridine-3-carbonitrile] are 0.33 µM, 3.4 µM, 18 µM, more than 240 µM and 0.74 µM.
In the case of `Cn1c(=O)c(C#N)c(N2CCN(Cc3c(O)cccc3Br)CC2)c2nc(Cl)ccc21` [Example 258, 4-{4-[(2-bromo-6-hydroxyphenyl)methyl]piperazin-1-yl}-6-chloro-1-methyl-2-oxo-1,2-dihydro-1,5-naphthyridine-3-carbonitrile], the IC50 came out at 0.0053 µM in experiment [1] (Homo sapiens, Raji); 1.6 µM at human DGKα [2]; 5.3 µM at human DGKζ [3] (setting [6]); 26 µM at human DGKζ [4] (setting [7]); 0.43 µM on human DGKα [5] (setting [8]).
In the same order, the values of `COc1cc(F)ccc1C(c1ccc(F)cc1)N1CCN(c2c(C#N)c(=O)n(C)c3ccc(Br)nc23)CC1` (single isomer, unassigned) [Example 16, 6-bromo-4-{4-[(4-fluoro-2-methoxyphenyl)(4-fluorophenyl)methyl]piperazin-1-yl}-1-methyl-2-oxo-1,2-dihydro-1,5-naphthyridine-3-carbonitrile] are 0.021 µM, 4.3 µM, 27 µM, more than 240 µM and 6.4 µM.
`Cn1c(=O)c([N+](=O)[O-])c(N2CCN(C(c3ccc(F)cc3)C3CC3)CC2)c2nc(C#N)ccc21` (single isomer, unassigned) [Example 51, 8-(4-(cyclopropyl(4-fluorophenyl)methyl)piperazin-1-yl)-5-methyl-7-nitro-6-oxo-5,6-dihydro-1,5-naphthyridine-2-carbonitrile]: the concentration for half-maximal inhibition (IC50) in experiment [1] was determined as 0.0052 µM; at human DGKα [2], 0.33 µM; on human DGKζ [3] (setting [6]) it was 4.7 µM; on human DGKζ [4] (setting [7]), 56 µM; against human DGKα [5] (DGKα IC50, detergent/lipid micelle substrate) it was 0.18 µM.
With `Cn1c(=O)c(C#N)c(N2CCN(Cc3cc(F)cc(C(F)(F)F)c3)CC2)c2nc(Cl)ccc21` [Example 313, 6-chloro-4-(4-{[3-fluoro-5-(trifluoromethyl)phenyl]methyl}piperazin-1-yl)-1-methyl-2-oxo-1,2-dihydro-1,5-naphthyridine-3-carbonitrile], the IC50 is 0.25 µM in experiment [1] (Homo sapiens, Raji); 17 µM on human DGKα [2]; 62 µM on human DGKζ [3] (setting [6]); more than 81 µM on human DGKζ [4] (setting [7]); 1.5 µM at human DGKα [5] (setting [8]).
